# In patent US6539252B1, “Method and apparatus for the treatment of blood borne pathogens such as immunodeficiency virus” (priority 1996, dated 2003):
# Legend:
# HIV virus = assay: treatment of HIV infected human subjects with electrically generated silver ions; viral load by RNA PCR quantification, T4 cell count; format: in vivo
# Text: The present invention operates by providing a low intensity direct current to electrode 35. By placing the electrode pad 98 on the surface of the patient in the vicinity of electrode 35, the low intensity direct current will cause the electrode 35 to act as an anode, thereby releasing metal ions into the bloodstream of the patient. These positively charged metal ions are attracted to the negative polarity of the virus, thereby destabilizing it, as discussed above. […] The use of such a large blood vessel is preferred because metal ions such as the preferred silver ion have a half life of approximately seven seconds. The device as will be seen below, creates an average output of four-hundred billion silver cations per second. With an average blood volume of four liters passing by the electrode 35 approximately twice per minute, the probability of a virus passing by the electrode 35 and being bonded to a metal ion increases when the volume of blood available to carry the virus is higher.
# (§1) To balance the need for large numbers of silver ions with the need to keep the amount of silver within safer ranges for humans, the power supply 110 supplies two and one-half microamps of current for twelve minutes at the beginning of treatment. This produces 1.56×10(13) ions of silver per second. During the twelve minutes (i.e., seven-hundred twenty seconds) that the power supply 110 supplies two and one-half microamps of current, 0.0018 Coulombs enters the bloodstream (i.e., seven-hundred and twenty seconds multiplied by two and one-half microamps). Under Faraday's law, one mole of silver ions equals 96485 Coulombs. Further, one mole of silver ions weighs 107.87 grams. Thus, in the initial twelve minute operating period, nearly two micrograms (1.94 micrograms) of silver ions are introduced into the bloodstream.
# After the initial twelve minute operating period, the low intensity direct current provided by power supply 110 is reduced to one-hundred twenty five nanoamps. This causes the production of silver ions to be produced at a rate of seven-hundred seventy-four billion ions per second. Under a preferred embodiment of the present invention, this level of electric current is maintained for a period of seventy-one hours and forty-eight minutes. During this time (i.e., 258,480 seconds) that the power supply 110 supplies one-hundred twenty-five nanoamps of current, […] enters the bloodstream (i.e., 258,480 seconds multiplied by one-hundred twenty-five nanoamps). Under Faraday's law, one mole of silver ions equals 96485 Coulombs. Further, one mole of silver ions weighs 107.87 grams. Thus, during this entire period, only approximately 36.1 micrograms of silver ions are introduced into the bloodstream. Thus, in the entire seventy-two hour treatment, only 38.1 micrograms of silver have been introduced into the patient's bloodstream.
# In a first example, the human patient had 2,165,823 copies of the HIV virus per milliliter of blood by the RNA PCR quantification test method. In addition, this patient's T4 cell (Helper) count was at 18. This particular subject was experiencing serious kidney malfunction prior to treatment. Twenty-four hours after treatment, this patient's viral load was reduced to 1,336,817 copies of the HIV virus per milliliter of blood while the T4 cell count was 11. Because of this patient's kidney malfunction, it was suspected that most of the viral copies detected during the RNA PCR quantization test had been denatured but had not yet been removed from the patient by the kidneys. Thus, one month after treatment, the viral load was measured again and found to be reduced to 621,215 copies of the HIV virus per milliliter of blood.
# Thus, the electrode 35 was placed in the subclavian vein. This patient was subjected to twelve minutes of treatment at 2.5 microamps and then only forty-seven hours and forty-eight minutes of treatment at one-hundred twenty-five nanoamps. […]
# [1] = test system: feline immunodeficiency virus (FIV); assay: treatment of a cat infected with feline immunodeficiency virus; format: in vivo; settings: seven year old male cat with FIV; about four micrograms silver in 24 min, then one-half microgram per hour for 90 min
# Text: The methods of this invention have also been successfully tested on a different virus and a different host: namely, a cat infected with feline immunodeficiency virus (“FIV”). A seven year old male house cat weighing ten pounds and ten and three-quarter ounces had “heavy third eyelid”, some hair loss, eleven bite marks along his back and rump, and a wound to the top of the ear, all indicative of acute disease. The cat was anesthetized with ketamine, a catheter was placed in the neck, and the negative electrode was placed on the underchest. Approximately four micrograms of silver was delivered in twenty-four minutes, followed by one-half a microgram of silver per hour for ninety minutes.
# [2] = calculated silver content in blood serum during treatment; format: in vivo, human; settings: by Faraday's law
# Text: as §1
# After the initial twelve minute operating period, the low intensity direct current provided by power supply 110 is reduced to one-hundred twenty five nanoamps. This causes the production of silver ions to be produced at a rate of seven-hundred seventy-four billion ions per second. Under a preferred embodiment of the present invention, this level of electric current is maintained for a period of seventy-one hours and forty-eight minutes. […]
# bacterial pathogens = settings: silver ions generated in small quantities in the blood stream; cited from earlier work
# mammalian cells = settings: at less than twenty parts per billion in the blood stream; cited from earlier work
# [3] = test system: eukaryotic microorganisms; settings: levels as low as; cited from earlier work
# [4] = human blood serum; cited from earlier work
structure (smiles),measurement,setting,value
[Ag+] [silver ions],clinical outcome after treatment,HIV virus; first human patient,"immediately felt improved health, was able to eat solid food, and experienced a dramatic increase in quality of life"
same,viral load,"HIV virus; first human patient, kidney malfunction, baseline 2,165,823, twenty-four hours after treatment, RNA PCR","1,336,817 copies of the HIV virus per milliliter of blood"
same,T4 cell count,"HIV virus; first human patient, baseline 18, twenty-four hours after treatment",11
same,viral load,"HIV virus; first human patient, baseline 2,165,823, one month after treatment","621,215 copies of the HIV virus per milliliter of blood"
same,clinical outcome after treatment,HIV virus; second human subject,immediately felt improved health and was able to eat solid food
same,viral load,"HIV virus; second human subject, electrode in subclavian vein, 12 min at 2.5 microamps then 47 h 48 min at 125 nanoamps, baseline 1,814,466, forty-eight hours after treatment, RNA PCR","394,972 copies of the HIV virus per milliliter of blood"
same,T4 cell count,"HIV virus; second human subject, baseline 17, forty-eight hours after treatment",18
same,clinical outcome after treatment,"HIV virus; third human subject, also on AZT","immediately felt improved health, was able to eat solid food, and experienced a dramatic increase in quality of life"
same,T4 cell count,"HIV virus; third human subject, also on AZT, baseline 5, twenty-four hours after treatment",6
same,viral load,"HIV virus; third human subject, also undergoing treatment with AZT, 12 min at 2.5 microamps then 70 h 18 min at 125 nanoamps, baseline 693,832, twenty-four hours after treatment, RNA PCR",634 copies of the HIV virus per milliliter of blood
same,clinical outcome the next morning,[1],returned to normal activity and appetite
same,silver content in the blood serum,[2]; entire seventy-two hour treatment (38.1 micrograms silver),less than nine
same,silver content in the blood serum,[2]; initial twelve minutes at two and one-half microamps (1.94 micrograms silver),less than five
same,quantity in the blood stream effective in destroying bacterial pathogens,bacterial pathogens,less than twenty
same,toxicity to mammalian cells,mammalian cells,totally nontoxic
same,level toxic to eukaryotic microorganisms,[3],one to five
same,silver in the blood serum humans can withstand without a toxic reaction,[4],thirty to eighty
